Assay results as given in US10172963B2, “Method of binding a CSE1L tumor marker in a tumor of an animal” (priority 2011, dated 2019).

Tests used:
Assay type in all cases: cell-based
[1] = system: B16-Ras cells; assay: CSE1L in cell lysates and conditioned media by immunoblotting; details: 50 μM, 24 h
Experimental: Cells were washed with phosphate-buffered saline (PBS) and lysed in ice-cold radioimmunoprecipitation assay (RIPA) buffer [25 Mm Tris-HCl (pH 7.2), 0.1% SDS, 0.1% Triton X-100, 1% sodium deoxycholate, 150 mM NaCl, 1 mM EDTA, 1 mM sodium orthovanadate, 1 mM phenylmethylsulfonyl fluoride, 10 μg/ml aprotinin, 5 μg/ml leupeptin, 25 mM β-glycerophosphate, 5 mM sodium orthovanadate, and 5 mM sodium fluoride]. The protein concentrations were determined with a BCA protein assay kit (Pierce, Rockford, Ill., USA). Fifty micrograms of each protein sample was loaded onto SDS-polyacrylamide gel. Proteins were transferred to nitrocellulose membranes (Amersham Pharmacia, Buckinghamshire, UK). […] The levels of protein were detected by Forte Western HRP Substrate (Millipore Corp., Billerica, Mass., USA) according to the manufacturer's instructions.
For Immunoblotting with biotin-conjugated antibodies, the biotin-conjugated antibody was prepared by biotinylating anti-CSE1L antibodies using the Biotin Labeling Kit-NH2 kit according to the manufacturer's protocol (Dojindo Laboratories, Kumamoto, Japan). The Immunoblot was then reacted with horseradish peroxidase (HRP)-conjugated streptavidin and the levels of protein were detected by Forte Western HRP Substrate. […]

[2] = system: B16-Ras cells; assay: Threonine phosphorylated CSE1L by immunoprecipitation and immunoblotting; details: 50 μM, 24 h
Experimental: Cells grown on plastic dishes were washed with PBS and incubated in immunoprecipitation lysis buffer [10 mM Tris-HCl (pH 7.4), 10 mM EDTA, 0.4% deoxycholic acid, 0.5% Triton X-100, 1 mM phenylmethylsulfonyl fluoride, 10 μg/ml aprotinin, 5 μg/ml leupeptin, 25 mM β-glycerophosphate, 5 mM sodium orthovanadate, and 5 mM sodium fluoride] at 4° C. for 20 min. Cells were scraped and disrupted by pipetting. The cell lysate was cleared of insoluble materials by centrifugation at 12,000 g for 10 min at 4° C., and the protein concentrations were determined with a BCA protein assay kit (Pierce). […]
(A) Levels of cellular threonine phosphorylated CSE1L in B16-dEV cells and B16-Ras cells treated with DMSO or 50 μM PD98059 for 24 h were analyzed by immunoprecipitation with anti-CSE1L antibodies and immunoblotting with HRP-conjugated anti-phosphothreonine antibodies. […] (B) Levels of secretory threonine phosphorylated CSE1L in cell number-standardized conditioned media harvested from serum-starved B16-dEV cells and B16-Ras cells treated with DMSO or 50 μM PD98059 for 24 h were analyzed by immunoprecipitation with anti-CSE1L antibodies and immunoblotting with HRP-conjugated anti-phosphothreonine antibodies. […] (D) The levels of CSE1L in the pool of cancer sera and normal sera were analyzed by immunoblotting with anti-CSE1L antibodies (clone 24).

[3] = system: B16-Ras cells; assay: Levels of microvesicular MMP-2 in microvesicles from conditioned media (immunoblot); details: 50 μM, 48 h, serum-starved B16-Ras cells
Experimental: Cells were washed with phosphate-buffered saline (PBS) and lysed in ice-cold radioimmunoprecipitation assay (RIPA) buffer [25 Mm Tris-HCl (pH 7.2), 0.1% SDS, 0.1% Triton X-100, 1% sodium deoxycholate, 150 mM NaCl, 1 mM EDTA, 1 mM sodium orthovanadate, 1 mM phenylmethylsulfonyl fluoride, 10 μg/ml aprotinin, 5 μg/ml leupeptin, 25 mM β-glycerophosphate, 5 mM sodium orthovanadate, and 5 mM sodium fluoride]. The protein concentrations were determined with a BCA protein assay kit (Pierce, Rockford, Ill., USA). Fifty micrograms of each protein sample was loaded onto SDS-polyacrylamide gel. Proteins were transferred to nitrocellulose membranes (Amersham Pharmacia, Buckinghamshire, UK). The membrane was blocked in blocking buffer [1% bovine serum albumin (BSA), 50 mM Tris-HCl (pH 7.6), 150 mM NaCl, and 0.1% Tween-20] at room temperature for 1 h. The blots were then incubated with primary antibodies at 4° C. overnight followed by incubation with secondary antibodies conjugated to horseradish peroxidase for 1 h. The levels of protein were detected by Forte Western HRP Substrate (Millipore Corp., Billerica, Mass., USA) according to the manufacturer's instructions.
Microvesicles were prepared from conditioned media or sera by size exclusion chromatography and ultracentrifugation. […] Fractions (1 ml) were collected, and the protein content was monitored by measuring absorbance at 280 nm. […]

[4] = system: B16-Ras cells; assay: Gelatin zymography assay of microvesicular MMP-2; details: 50 μM PD98059, or stable CSE1L shRNA transfection; microvesicles from conditioned media of serum-starved cells
Experimental: Microvesicles harvested from cell number-standardized conditioned media were resolved using 10% SDS-PAGE containing 1 mg/ml gelatin. The gel was washed twice with 2.5% Triton X-100 for 30 min to remove SDS, and subsequently incubated in buffer containing 50 mM Tris-HCl (pH 7.6), 200 mM NaCl, and 10 mM CaCl2 at 37° C. for 24 h. The gel was stained with Comassie blue R-250 (0.125% Comassie blue R-250, 50% methanol, 10% acetic acid) for 30 min and destained with destaining solution (20% methanol, 10% acetic acid, 70% ddH2O) until the clear bands were visualized.
(A) Gelatin zymographic activities of MMP-2 in microvesicles harvested form the cell number-standardized conditioned media of serum-starved B16-dEV, B16-Ras, B16-CSE1L, and B16-Ras/anti-CSE1L cells treated with or without DMSO or 50 μM PD98059 for 48 h as indicated. (B) The in vitro invasion abilities of B16-dEV, B16-Ras, B16-CSE1L, and B16-Ras/anti-CSE1L cells analyzed by Matrigel-based invasion assays. The mean±SD numbers of invasive cells were 109.4±12.6, 406.8±23.9, 311.25±32.4, and 46.75±8.7 cells per field for B16-dEV, B16-CSE1L, B16-Ras, and B16-Ras/anti-CSE1L cells, respectively.

[5] = conditioned media of serum-starved B16-Ras cells

SMILES: COc1cccc(-c2cc(=O)c3ccccc3o2)c1N [PD98059]
- Effect on CSE1L expression in cells ([1]; cell lysates): did not obviously affect CSE1L expression in cells
- Effect on v-H-ras-induced increase in CSE1L secretion [1, 5]: attenuated v-H-ras-induced increase in CSE1L secretion
- Effect on v-H-ras-increased threonine phosphorylation of cellular CSE1L ([2]; cell lysates of B16-Ras cells): inhibited v-H-ras-increased threonine phosphorylation in CSE1L
- Effect on v-H-ras-increased secretion of threonine phosphorylated CSE1L [2, 5]: inhibited v-H-ras-increased secretion of threonine phosphorylated CSE1L
- Effect on v-H-ras-induced increase in microvesicular MMP-2 [3]: attenuated v-H-ras-induced increase in MMP-2 in microvesicles
- Effect on v-H-ras-induced increase in zymographic activity of microvesicular MMP-2 [4]: attenuated the v-H-ras-induced increase in the zymographic activity of microvesicular MMP-2
